# From patent publication US20070185122A1, “Use of efletirizine for treating persistent allergic rhinitis” (priority 2003, published 2007)
# Columns and labels:
# [1] = test system: persistent allergic rhinitis; experiment: clinical study of efletirizine dihydrochloride in persistent allergic rhinitis (T5SS, RQLQ, SF-36), placebo-controlled; type: in vivo, adult patients; details: patients with persistent allergic rhinitis
# Description: A study relative to the clinical effect of efletirizine dihydrochloride is planed to establish on the intention to treat (ITT population) whether an approximately 6 month efletirizine treatment can improve the quality of life and clinical symptoms from adult patients suffering from persistent allergic rhinitis, when compared to placebo.
# Secondary parameters of efficacy include different durations of treatment, different symptoms, different quality of life questionnaires, the incidence of co-morbidities suspected to be linked to allergic rhinitis and pharmaco-economic variables. The safety of this long-term treatment with efletirizine is also evaluated.
# The target population of this study consists of adults aged more than 18 years suffering from persistent allergic rhinitis [WHO Initiative on Allergic Rhinitis and its Impact on Asthma (ARIA), 2000, pages S147-S149]. To be enrolled, the subjects need to have sufficient rhinitis symptoms during the selection period. Excluded are patients with ENT (Ear-Nose-Throat) or eye infection preceding initial visit. […]
# The severity of clinical symptoms is rated by the T5SS (sneezing, rhinorrhea, nasal pruritus, ocular pruritus and nasal congestion) evaluated each by a score from 0 to 3 each day. The impact on health related quality of life is measured using the Rhinoconjunctivitis Quality of Life Questionnaire (RQLQ, SF36) (E. JUNIPER and G. H. GUYATT, Development and testing of a new measure of health status for clinical trials in rhinoconjunctivitis, Clinical and Experimental Allergy 1991; 21:77-83; E. JUNIPER, Measuring Health Related Quality of Life in rhinitis, J. Allergy Clin. Immunol. 1997; 99:S742-9). […]
# At each of the visits, diary book entries (T5SS, RQLQ, SF-36, indirect cost pharmaco-economic parameters, concomitant medication, outpatient consultations and adverse events) are verified and transferred into the Clinical Record Form and direct cost pharmaco-economic parameters will be recorded. […]
# Adverse events are recorded by the patients on diary cards and discussed with the investigator at each visit. […]
# histamine H1-receptor = histamine H1-receptor (Homo sapiens, UniProt P35367); experiment: in vitro affinity and selectivity for H1-receptors; type: binding
# Chain of histamine H1-receptor (P35367 whole entry, species assumed): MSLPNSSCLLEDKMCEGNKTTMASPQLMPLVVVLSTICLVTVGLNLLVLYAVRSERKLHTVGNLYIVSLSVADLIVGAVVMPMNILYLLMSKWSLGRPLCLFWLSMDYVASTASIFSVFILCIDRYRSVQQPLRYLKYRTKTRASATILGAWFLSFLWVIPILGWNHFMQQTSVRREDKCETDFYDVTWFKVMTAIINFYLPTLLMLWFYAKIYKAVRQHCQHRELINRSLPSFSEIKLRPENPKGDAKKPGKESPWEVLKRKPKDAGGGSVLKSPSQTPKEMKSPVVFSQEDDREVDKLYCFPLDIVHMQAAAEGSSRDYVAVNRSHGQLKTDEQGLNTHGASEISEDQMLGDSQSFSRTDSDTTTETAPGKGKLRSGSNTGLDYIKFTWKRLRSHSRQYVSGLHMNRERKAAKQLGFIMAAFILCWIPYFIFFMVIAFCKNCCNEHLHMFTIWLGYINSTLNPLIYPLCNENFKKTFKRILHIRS
SMILES,duration of effect on persistent rhinitis [1],duration of effect on quality of life [1],effect on nasal congestion [1],affinity for H1-receptors (histamine H1-receptor)
Cl.Cl.O=C(O)COCCN1CCN(C(c2ccc(F)cc2)c2ccc(F)cc2)CC1 [efletirizine dihydrochloride],more than 4 weeks,more than 4 weeks,has an effect on nasal congestion,
"O=C(O)COCCN1CCN(C(c2ccc(F)cc2)c2ccc(F)cc2)CC1 [Efletirizine, 2-[2-[4-[Bis(4-fluorophenyl)methyl]-1-piperazinyl]ethoxy]acetic acid]",,,,high affinity
